Measurements taken from patent US9447044B2, “Thioaryl derivatives as GPR120 agonists” (LG LIFE SCIENCES LTD., priority 2012, dated 2016).

What follows are compounds tested against T1, hGPR120 (Homo sapiens, UniProt Q5NUL3) (assay: Measurement of activity of GPR120 agonist (cell-based assay), calcium fluorescence). Conditions: CHO-K1 cells expressing Ga16 and hGPR120; Calcium 5 dye fluorescence; activity class.
T1 construct: expressed in transfected cells; host or cells: CHO-K1
T1 sequence (Q5NUL3 1-361): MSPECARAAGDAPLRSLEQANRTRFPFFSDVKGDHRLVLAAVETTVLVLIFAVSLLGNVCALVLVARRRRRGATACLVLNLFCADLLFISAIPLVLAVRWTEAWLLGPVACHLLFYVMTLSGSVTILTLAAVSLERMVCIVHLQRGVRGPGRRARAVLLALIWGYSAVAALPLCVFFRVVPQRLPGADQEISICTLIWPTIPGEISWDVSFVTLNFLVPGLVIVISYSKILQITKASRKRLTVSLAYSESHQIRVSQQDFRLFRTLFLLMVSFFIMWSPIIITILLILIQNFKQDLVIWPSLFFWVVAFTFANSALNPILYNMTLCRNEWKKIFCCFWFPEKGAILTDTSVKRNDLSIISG
Procedure, shortened: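 CHO-K1 cells co-expressing Gα16 and hGPR120, loaded with Calcium 5 dye for 1 h at 37° C, received serially diluted agonists (final 0.5% DMSO). Fluorescence (Ex 485/Em 525 nm) was expressed as relative percent over 0.1% DMSO-only wells; activity binned as A >20 μM, B 20–2 μM, C 2–0.2 μM, D <0.2 μM.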

Row | EC50 [µM] | Structure (SMILES)
1 | < 0.2 | O=C(O)C1CC1c1ccc(OCc2cccnc2SCC2CC2)c(Cl)c1 (centres unmarked) [Example 127, 2-[3-chloro-4-(2-cyclopropylmethylsulfanyl-pyridin-3-ylmethoxy)-phenyl]-cyclopropane carboxylic acid]
2 | < 0.2 | O=C(O)C1CC1c1ccc(OCc2cccc(SC3CCC3)n2)c(Cl)c1 (centres unmarked) [Example 132, 2-[3-chloro-4-(6-cyclobutylsulfanyl-pyridin-2-ylmethoxy)-phenyl]-cyclopropane carboxylic acid]
3 | < 0.2 | CCCSc1ncccc1COc1c(F)cc(C2CC2C(=O)O)cc1F (centres unmarked) [Example 139, 2-[3,5-difluoro-4-(2-propylsulfanyl-pyridin-3-ylmethoxy)-phenyl]-cyclopropane carboxylic acid]
4 | < 0.2 | CC(C)Sc1cccc(COc2ccc(CCC(=O)O)cc2Cl)n1 [Example 141, 3-[3-chloro-4-(6-isopropylsulfanyl-pyridin-2-ylmethoxy)-phenyl]-propionic acid]
5 | < 0.2 | O=C(O)CCc1ccc(OCc2cccc(SC3CCCC3)n2)c(Cl)c1 [Example 143, 3-[3-chloro-4-(6-cyclopentylsulfanyl-pyridin-2-ylmethoxy)-phenyl]-propionic acid]
6 | < 0.2 | CCCSc1ncccc1COc1ccc(CCC(=O)O)cc1F [Example 144, 3-[3-fluoro-4-(2-propylsulfanyl-pyridin-3-ylmethoxy)-phenyl]-propionic acid]
7 | < 0.2 | O=C(O)CCc1ccc(OCc2cccnc2SC2CCC2)c(F)c1 [Example 145, 3-[4-(2-cyclobutylsulfanyl-pyridin-3-ylmethoxy)-3-fluoro-phenyl]-propionic acid]
8 | < 0.2 | O=C(O)CCc1ccc(OCc2cccnc2SC2CCCC2)c(F)c1 [Example 146, 3-[4-(2-cyclopentylsulfanyl-pyridin-3-ylmethoxy)-3-fluoro-phenyl]-propionic acid]
9 | < 0.2 | O=C(O)CCc1ccc(OCc2cccc(SC3CCC3)n2)c(F)c1 [Example 148, 3-[4-(6-cyclobutylsulfanyl-pyridin-2-ylmethoxy)-3-fluoro-phenyl]-propionic acid]
10 | < 0.2 | CC(C)Sc1cccc(COc2ccc(CCC(=O)O)cc2F)n1 [Example 149, 3-[3-fluoro-4-(6-isopropylsulfanyl-pyridin-2-ylmethoxy)-phenyl]-propionic acid]
11 | < 0.2 | O=C(O)CCc1ccc(OCc2cccc(SC3CCCC3)n2)c(F)c1 [Example 150, 3-[4-(6-cyclopentylsulfanyl-pyridin-2-ylmethoxy)-3-fluoro-phenyl]-propionic acid]
12 | < 0.2 | O=C(O)CCc1ccc(OCc2cccc(SCC3CC3)n2)c(F)c1 [Example 151, 3-[4-(6-cyclopropylmethylsulfanyl-pyridin-2-ylmethoxy)-3-fluoro-phenyl]-propionic acid]
13 | < 0.2 | CC(C)Sc1cccc(COc2c(F)cc(C3CC3C(=O)O)cc2F)n1 (centres unmarked) [Example 152, 2-[3,5-difluoro-4-(6-isopropylsulfanyl-pyridin-2-ylmethoxy)-phenyl]-cyclopropane carboxylic acid]
14 | < 0.2 | O=C(O)C1CC1c1cc(F)c(OCc2cccc(SCC3CC3)n2)c(F)c1 (centres unmarked) [Example 153, 2-[4-(6-cyclopropylmethylsulfanyl-pyridin-2-ylmethoxy)-3,5-difluoro-phenyl]-cyclopropane carboxylic acid]
15 | < 0.2 | O=C(O)C1CC1c1cc(F)c(OCc2cccc(SC3CCC3)n2)c(F)c1 (centres unmarked) [Example 155, 2-[4-(6-cyclobutylsulfanyl-pyridin-2-ylmethoxy)-3,5-difluoro-phenyl]-cyclopropane carboxylic acid]
16 | < 0.2 | O=C(O)CCc1ccc(OCc2cccnc2SCC2CC2)c(Cl)c1 [Example 157, 3-[3-chloro-4-(2-cyclopropylmethylsulfanyl-pyridin-3-ylmethoxy)-phenyl]-propionic acid]
17 | < 0.2 | O=C(O)CCc1ccc(OCc2cccnc2SC2CCC2)c(Cl)c1 [Example 158, 3-[3-chloro-4-(2-cyclobutylsulfanyl-pyridin-3-ylmethoxy)-phenyl]-propionic acid]

Row | EC50 [µM] | Structure (SMILES)
18 | < 0.2 | O=C(O)CCc1ccc(OCc2cccc(SC3CCC3)n2)c(Cl)c1 [Example 159, 3-[3-chloro-4-(6-cyclobutylsulfanyl-pyridin-2-ylmethoxy)-phenyl]-propionic acid]
19 | 0.2 to 2 | Cc1ccc(COc2ccc(CCC(=O)O)cc2Cl)c(SC2CCCC2)n1 [Example 161, 3-[3-chloro-4-(2-cyclopentylsulfanyl-6-methyl-pyridin-3-ylmethoxy)-phenyl]-propionic acid]
20 | < 0.2 | CC(C)Sc1ncccc1COc1ccc(C2CC2C(=O)O)cc1F (centres unmarked) [Example 162, 2-[3-fluoro-4-(2-isopropylsulfanyl-pyridin-3-ylmethoxy)-phenyl]-cyclopropane carboxylic acid]
21 | < 0.2 | O=C(O)C1CC1c1ccc(OCc2cccc(SCC3CC3)n2)c(F)c1 (centres unmarked) [Example 170, 2-[4-(6-cyclopropylmethylsulfanyl-pyridin-2-ylmethoxy)-3-fluoro-phenyl]-cyclopropane carboxylic acid]
22 | 0.2 to 2 | O=C(O)CCc1ccc(NCc2cccnc2SC2CCCC2)cc1 [Example 171, 3-{4-[(2-cyclopentylsulfanyl-pyridin-3-ylmethyl)-amino]-phenyl]-propionic acid]
23 | 2 to 20 | O=C(O)CCc1ccc(NCc2cccc(SC3CCCC3)n2)cc1 [Example 172, 3-{4-[(6-cyclopentylsulfanyl-pyridin-2-ylmethyl)-amino]-phenyl]-propionic acid]
24 | < 0.2 | O=C(O)CCc1ccc(OCc2cccnc2SC2CCCC2)cc1F [Example 173]
25 | 0.2 to 2 | O=C(O)C1CC1c1ccc(OCc2cccnc2SC2CCCC2)cc1F (centres unmarked) [Example 174]
26 | 0.2 to 2 | O=C(O)CCc1ccc(OCc2cccnc2SC2CCC2)cc1F [Example 175]
27 | 0.2 to 2 | O=C(O)CCc1ccc(OCc2cccc(SC3CCCC3)n2)cc1F [Example 177]
28 | 0.2 to 2 | O=C(O)CCc1ccc(OCc2cccnc2SCC2CC2)cc1F [Example 178]
29 | 0.2 to 2 | O=C(O)CCc1ccc(OCc2cccc(SCC3CC3)n2)cc1F [Example 179]
30 | 0.2 to 2 | O=C(O)CCc1ccc(OCc2cccnc2SC2CCC2)cc1 [Example 180]
31 | < 0.2 | O=C(O)CCc1ccc(OCc2cccc(SC3CCC3)n2)cc1 [Example 181]
32 | < 0.2 | O=C(O)CCc1ccc(OCc2cccnc2SCC2CC2)cc1 [Example 182]
33 | 0.2 to 2 | O=C(O)CCc1ccc(OCc2cccc(SCC3CC3)n2)cc1 [Example 183]
34 | 0.2 to 2 | Cc1ccc(COc2ccc(CCC(=O)O)cc2)c(SC2CCCC2)n1 [Example 184]

Same assay, conditions: CHO-K1 cells expressing Ga16 and hGPR120; Calcium 5 dye fluorescence; numeric value

Row | EC50 [µM] | Structure (SMILES)
35 | 0.042 | O=C(O)C1CC1c1ccc(OCc2cccc(SCC3CC3)n2)c(Cl)c1 (centres unmarked) [Example 128, 2-[3-chloro-4-(6-cyclopropylmethylsulfanyl-pyridin-2-ylmethoxy)-phenyl]-cyclopropane carboxylic acid]
36 | 0.056 | CC(C)Sc1ncccc1COc1c(F)cc(C2CC2C(=O)O)cc1F (centres unmarked) [Example 138, 2-[3,5-difluoro-4-(2-isopropylsulfanyl-pyridin-3-ylmethoxy)-phenyl]-cyclopropane carboxylic acid]
37 | 0.011 | O=C(O)CCc1ccc(OCc2cccc(SCC3CC3)n2)c(Cl)c1 [Example 142, 3-[3-chloro-4-(6-cyclopropylmethylsulfanyl-pyridin-2-ylmethoxy)-phenyl]-propionic acid]
38 | 0.054 | O=C(O)CCc1ccc(OCc2cccnc2SCC2CC2)c(F)c1 [Example 147, 3-[4-(2-cyclopropylmethylsulfanyl-pyridin-3-ylmethoxy)-3-fluoro-phenyl]-propionic acid]
39 | 0.202 | Cc1ccc(COc2ccc(CCC(=O)O)cc2Cl)c(SC(C)C)n1 [Example 160, 3-[3-chloro-4-(2-isopropylsulfanyl-6-methyl-pyridin-3-ylmethoxy)-phenyl]-propionic acid]
40 | 0.176 | O=C(O)CCc1ccc(OCc2cccc(SC3CCC3)n2)cc1F [Example 176]
41 | 0.441 | Cc1ccc(COc2ccc(CCC(=O)O)cc2)c(SC(C)C)n1 [Example 185]
